For 39 molecules, IC50 results are on record in patent EP0600950B1, “AMIDE TETRAZOLE ACAT INHIBITORS” (priority 1991, dated 1993).

Each structure is given as a SMILES string. Where only a bound is given, the exact number is not on record here.

This experiment addresses acyl-CoA: cholesterol acyltransferase (ACAT). The experiment is described as follows: in vitro ACAT inhibition, rabbit intestinal microsomes (IAI). In kind it is biochemical. Conditions: radiolabeled cholesterol oleate formed from radiolabeled oleic acid. From the text:
The test assesses the ability of a test compound to inhibit the acylation of cholesterol by oleic acid by measuring the amount of radiolabeled cholesterol oleate formed from radiolabeled oleic acid in a tissue preparation containing rabbit intestinal microsomes (designated IAI) or from rat liver microsomes (designated LAI).

`CCCCCCCCCCCCCCn1nnnc1CC(=O)Nc1c(OC)cc(OC)cc1OC` [Example 50, 1-tetradecyl-N-(2,4,6-tri-methoxyphenyl)-1H-tetrazole-5-acetamide] displayed a 50% inhibitory concentration (IC50) of 1000 nM.
As for `CCCCCCCCCCCCn1nnc(C(C(=O)NC2CC2)c2ccccc2)n1` (racemic) [Example 20, (±)-N-cyclopropyl-2-dodecyl-α-phenyl-2H-tetrazole-5-acetamide], the IC50 was determined as 47 nM.
For `CCCCCCCCCCCCCCCCn1nnc(C(C(=O)Nc2c(OC)cc(OC)cc2OC)c2ccccc2)n1` (racemic) [Example 32, (±) 2-Hexadecyl-α-phenyl-N-(2,4,6-trimethoxyphenyl)-2H-tetrazole-5-acetamide], the IC50 was 53 nM. The IC50 values of the last two molecules are within 1.5-fold of each other.
`CCCCCCCCCCCCn1nnnc1CCC(=O)Nc1c(OC)cc(OC)cc1OC` [Example 37, 1-Dodecyl-N-(2,4,6-trimethoxyphenyl)-1H-tetrazole-5-propanamide] came in with a half-inhibitory concentration (IC50) of 210 nM. This IC50 lies about 4-fold higher than the previous one.
In turn, `CCCCCCCCCCCCn1nnc(C2(C(=O)Nc3c(OC)cc(OC)cc3OC)CCCC2)n1` [Example 29, 1-(2-Dodecyl-2H-tetrazol-5-yl)-N-(2,4,6-trimethoxyphenyl)cyclopentanecarboxamide] yielded a half-inhibitory concentration (IC50) of 10 nM.
In the case of `CCCCCCCCCCCCn1nnc(CC(=O)Nc2ncccc2C)n1` [Example 7, 2-dodecyl-N-(3-methyl-2-pyridinyl)-2H-tetrazole-5-acetamide], inhibition was half-maximal at 28 nM (IC50).
For `CCCCCCCCCCCCn1nnc(C(C(=O)Nc2c(OC)cc(OC)cc2OC)c2ccc3ccccc3c2)n1` (racemic) [Example 53, (±)-2-Dodecyl-α-2-naphthalenyl-N-(2,4,6-trimethoxyphenyl)-2H-tetrazole-5-acetamide], half-maximal inhibition (IC50) required 97 nM.
In the case of `CCCCCCCCCCCCn1nnc(C(C(=O)Nc2c(OC)cc(OC)cc2OC)C2CCCCC2)n1` (racemic) [Example 60, (±)-2-Dodecyl-α-(cyclohexyl)-N-(2,4,6-trimethoxy-phenyl)-2H-tetrazole-5-acetamide], half-maximal inhibition (IC50) was put at 28 nM.
`CCCCCCCCCCCCn1nnc(CCC(=O)Nc2c(OC)cc(OC)cc2OC)n1` [Example 34, 2-Dodecyl-N-(2,4,6-trimethoxyphenyl)-2H-tetrazole-5-propanamide] displayed a concentration for half-maximal inhibition (IC50) of 69 nM.
As to `CCCCCCCCCCCCn1nnc(C(C(=O)Nc2c(OC)cc(OC)cc2OC)c2ccc(-c3ccccc3)cc2)n1` (racemic) [Example 54, (±)-α-([1,1'-biphenyl]-4-yl)-2-dodecyl-N-(2,4,6-trimethoxy-phenyl)-2H-tetrazole-5-acetamide], half-maximal inhibition (IC50) required 220 nM.
Regarding `CCCCCCCCCCCCn1nnnc1C(C(=O)Nc1c(C(C)C)cccc1C(C)C)c1ccccc1` (racemic) [Example 26, (±)-N-[2,6-Bis(1-methylethyl)phenyl]-1-dodecyl-α-phenyl-1H-tetrazole-5-acetamide], half-maximal inhibition (IC50) was put at 79 nM. Compared with the last molecule, the IC50 is about 2.8-fold lower.
In the case of `CCCCCCCCCCCCn1nnc(C(C(=O)Nc2ncccc2C)c2ccccc2)n1` (racemic) [Example 23, (±)-2-dodecyl-N-(3-methyl-2-pyridinyl)-α-phenyl-2H-tetrazole-5-acetamide], the IC50 was found to be 7.5 nM.
In turn, `CCCCCCCCCCCCn1nnc(C(C(=O)Nc2c(OC)cc(OC)cc2OC)c2ccc(F)cc2)n1` (racemic) [Example 52, (±)-2-Dodecyl-α-(4-fluorophenyl)-N-(2,4,6-trimethoxyphenyl)-2H-tetrazole-5-acetamide] had a half-inhibitory concentration (IC50) of 36 nM.
The result for `CCCCCCCCCCCCn1nnnc1CC(=O)Nc1c(OC)cc(OC)cc1OC` [Example 6, 1-dodecyl-N-(2,4,6-trimethoxyphenyl)-1H-tetrazole-5-acetamide] reads 120 nM; that for `CCCCCCCCCCCCCn1nnc(C(C)(C)C(=O)Nc2c(OC)cc(OC)cc2OC)n1` [Example 33, 2-Tridecyl-α,α-dimethyl-N-(2,4,6-trimethoxyphenyl)-2H-tetrazole-5-acetamide], 17 nM; that for `CCCCCCCCCCCCn1nnc(C(C(=O)NC(C)(C)C)c2ccccc2)n1` (racemic) [Example 30, (±) N-(1,1-dimethylethyl)-2-dodecyl-α-phenyl-2H-tetrazole-5-acetamide], 770 nM.
The result for `CCCCCCCCCCCCn1nnnc1CC(=O)Nc1c(C(C)C)cccc1C(C)C` [Example 2, N-[2,6-Bis(1-methylethyl)phenyl]-1-dodecyl-1H-tetrazole-5-acetamide] reads 92 nM; that for `CCCCCCCCCCCCn1nnc(C(C(=O)Nc2c(OC)cc(OC)cc2OC)c2ccccc2)n1` (single isomer, unassigned; (+)) [Example 62, (+)-2-Dodecyl-α-phenyl-N-(2,4,6-trimethoxy-phenyl)-2H-tetrazole-5-acetamide], 14 nM.
In turn, `CCCCCCCCn1nnc(C(C(=O)Nc2c(OC)cc(OC)cc2OC)c2ccccc2)n1` (racemic) [Example 31, (±)-2-Octyl-α-phenyl-N-(2,4,6-trimethoxyphenyl)-2H-tetrazole-5-acetamide] showed an IC50 of 270 nM.
`CCCCCCCCCCCCn1nnc(C(C(=O)Nc2ccc(F)cc2F)c2ccccc2)n1` (racemic) [Example 21, (±)-N-(2,4-difluoro-phenyl)-2-dodecyl-α-phenyl-2H-tetrazole-5-acetamide] showed an IC50 of 15 nM. This IC50 is about 18-fold lower than that of the molecule before.
Under `CCCCCCCCCCCCn1nnc(C(C)(C)C(=O)Nc2c(OC)cc(OC)cc2OC)n1` [Example 27, 2-Dodecyl-α,α-dimethyl-N-(2,4,6-trimethoxyphenyl)-2H-tetrazole-5-acetamide] stands 14 nM; under `CCCCCCCCCCCCCCn1nnc(CC(=O)Nc2c(OC)cc(OC)cc2OC)n1` [Example 49, 2-tetradecyl-N-(2,4,6-tri-methoxyphenyl)-2H-tetrazole-5-acetamide], 15 nM.
`CCCCCCCCCCCCn1nnc(C(C(=O)Nc2ccccc2)c2ccccc2)n1` (racemic) [Example 14, (±)-2-dodecyl-N,α-diphenyl-2H-tetrazole-5-acetamide] gave a half-inhibitory concentration (IC50) of 91 nM.
In the case of `CCCCCCCCCCCCn1nnc(CCC(=O)Nc2ccc(F)cc2F)n1` [Example 36, N-(2,4-Difluorophenyl)-2-dodecyl-2H-tetrazole-5-propanamide], the IC50 is > 5000 nM.
The molecule `CCCCCCCCCCCCn1nnc(C(C(=O)Nc2cnc3c(C)cc(C)cc3c2-c2ccccc2Cl)c2ccccc2)n1` (racemic) [Example 18, (±)-N-[4-(2-chlorophenyl)-6,8-dimethyl-3-quinolinyl]-2-dodecyl-α-phenyl-2H-tetrazole-5-acetamide] came in with an IC50 of 28 nM.
Under `CCCCCCCCCCCCn1nnc(C(Cc2ccccc2)C(=O)Nc2c(OC)cc(OC)cc2OC)n1` (racemic) [Example 59, (±)-2-Dodecyl-α-(phenylmethyl)-N-(2,4,6-trimethoxyphenyl)-2H-tetrazole-5-acetamide] stands 49 nM; under `CCCCCCCCCCCCn1nnc(C(C(=O)Nc2ccc3c(C)cc(C)nc3n2)c2ccccc2)n1` (racemic) [Example 17, (±)-N-(5,7-dimethyl-1,8-naphthyridine-2-yl)-2-dodecyl-α-phenyl-2H-tetrazole-5-acetamide], 190 nM; under `CCCCCCCCCCCCn1nnc(CC(=O)Nc2c(OC)ncnc2OC)n1` [Example 3, N-(4,6-dimethoxy-5-pyrimidinyl)-2-dodecyl-2H-tetra-zole-5-acetamide], 7 nM.
`CCCCCCCCCCCCn1nnc(CCC(=O)Nc2c(C(C)C)cccc2C(C)C)n1` [Example 35, N-(2,6-Bis(1-methylethyl)phenyl)-2-dodecyl-2H-tetrazole-5-propanamide] registered a 50% inhibitory concentration (IC50) of 9 nM.
The result for `CCCCCCCCCCCCn1nnc(C(C)C(=O)Nc2c(OC)cc(OC)cc2OC)n1` (racemic) [Example 58, (±)-2-Dodecyl-α-(methyl)-N-(2,4,6-trimethoxy-phenyl)-2H-tetrazole-5-acetamide] reads 31 nM; that for `CCCCCCCCCCCCn1nnc(C(C(=O)Nc2c(C(C)C)cccc2C(C)C)c2ccccc2)n1` (racemic) [Example 15, (±)-N-[2,6-bis(1-methylethyl)phenyl]-2-dodecyl-α-phenyl-2H-tetrazole-5-acetamide], 8 nM; that for `CCCCCCCCCCCCn1nnc(C(C(=O)Nc2c(OC)ncnc2OC)c2ccccc2)n1` (racemic) [Example 16, (±)-N-(4,6-dimethoxy-5-pyrimidinyl)-2-dodecyl-α-phenyl-2H-tetrazole-5-acetamide], 8 nM.
The result for `CCCCCCCCCCCCn1nnc(CC(=O)Nc2ccc(F)cc2F)n1` [Example 9, N-(2,4-difluoro-phenyl)-2-dodecyl-2H-tetrazole-5-acetamide] reads 280 nM.
For `CCCCCCCCCCCCn1nnc(C(C(=O)Nc2c(C)ccc[n+]2[O-])c2ccccc2)n1` (racemic) [Example 24, (±)-2-Dodecyl-N-(3-methyl-2-pyridinyl)-2-phenyl-2H-tetrazole-5-acetamide, N-oxide], the concentration for half-maximal inhibition (IC50) came out at 41 nM. This IC50 is about 6.8-fold lower than that of the molecule before.
In the case of `CCCCCCCCCCCCn1nnc(C(C(=O)Nc2c(C(C)C)cccc2C(C)C)(c2ccccc2)c2ccccc2)n1` [Example 46, N-[2,6-Bis(1-methylethyl)phenyl]-2-dodecyl-α,α-diphenyl-2H-tetrazole-5-acetamide], the 50% inhibitory concentration (IC50) worked out at 11000 nM.
Take `CCCCCCCCCCCCn1nnc(C(C(=O)Nc2ccccn2)c2ccccc2)n1` (racemic) [Example 22, (±)-2-dodecyl-α-phenyl-N-2-pyridinyl-2H-tetrazole-5-acetamide]: it took 91 nM to reach half-maximal inhibition (IC50).
Consider `CCCCCCCCCCCCCCn1nnc(CCC(=O)Nc2c(OC)cc(OC)cc2OC)n1` [Example 47, 2-tetradecyl-N-(2,4,6-tri-methoxyphenyl)-2H-tetrazole-5-propanamide], for which it took 2100 nM to reach half-maximal inhibition (IC50).
Under `CCCCCCCCCCCCn1nnc(C(C(=O)Nc2c(C(C)C)cccc2C(C)C)c2ccccn2)n1` (racemic) [Example 55, (±)-N-[2,6-Bis(1-methylethyl)phenyl]-2-dodecyl-α-2-pyridinyl-2H-tetrazole-5-acetamide] stands 26 nM; under `CCCCCCCCCCCCn1nnc(C(C(=O)Nc2c(OC)cc(OC)cc2OC)c2ccccc2)n1` (single isomer, unassigned; (-)) [Example 61, (-)-2-Dodecyl-α-phenyl-N-(2,4,6-trimethoxy-phenyl)-2H-tetrazole-5-acetamide], 310 nM.
